In the NIST ThermoML archive (doi:10.1016/j.jct.2016.01.019):

Assay: refractive index (other wavelength) (dimensionless); xn = mol fraction of the nth substance listed
Conditions: 94.64 kPa, Liquid, Standard Abbe refractometry

OCCCO [propan-1,3-diol] + CC(O)CO
refractive index
Conditions	x2 = 0	x2 = 0.0985	x2 = 0.2023	x2 = 0.3015	x2 = 0.3961	x2 = 0.5009	x2 = 0.5961	x2 = 0.6965	x2 = 0.7974	x2 = 0.8985
308.15 K, Wavelength=404.7 nm	1.44755	1.44681	1.44642	1.44583	1.44528	1.44466	1.44403	1.44294	1.44202	1.44072
308.15 K, Wavelength=435.8 nm	1.44419	1.44355	1.44296	1.44258	1.44194	1.44132	1.4406	1.43962	1.43868	1.43738
308.15 K, Wavelength=486.1 nm	1.44027	1.43972	1.43922	1.43857	1.43806	1.43743	1.43673	1.43585	1.43482	1.43353
308.15 K, Wavelength=546.1 nm	1.43699	1.43636	1.43579	1.43522	1.4348	1.43417	1.43347	1.43254	1.43163	1.43033
308.15 K, Wavelength=587.6 nm	1.43529	1.43471	1.434	1.43353	1.4331	1.43247	1.43187	1.43093	1.42993	1.42865
308.15 K, Wavelength=632.8 nm	1.43375	1.43302	1.4324	1.432	1.43158	1.43095	1.43034	1.42938	1.42838	1.42712
308.15 K, Wavelength=644 nm	1.4334	1.43286	1.4322	1.43185	1.43123	1.43061	1.43	1.42895	1.42803	1.42677
308.15 K, Wavelength=706.5 nm	1.4317	1.43089	1.4305	1.42987	1.42955	1.42893	1.42834	1.42729	1.42637	1.42508
313.15 K, Wavelength=404.7 nm	1.44615	1.44547	1.44484	1.44421	1.44353	1.4429	1.44213	1.4412	1.44027	1.4391
313.15 K, Wavelength=435.8 nm	1.4428	1.44212	1.44145	1.44077	1.44021	1.43956	1.43886	1.43787	1.43694	1.43576
313.15 K, Wavelength=486.1 nm	1.43888	1.43822	1.43758	1.43688	1.43634	1.43565	1.435	1.43401	1.43313	1.43193
313.15 K, Wavelength=546.1 nm	1.43562	1.43502	1.4344	1.43385	1.43312	1.43257	1.43175	1.43082	1.42992	1.42873
